The values that follow come from patent publication US9303017B2, “2,5-disubstituted-pyridyl nicotinic ligands, and methods of use thereof” (Georgetown University, priority 2011, dated 2016).

Assay [1] has as its system alcohol preferring rats (P rats). The assay can be described thus: Alcohol intake in alcohol preferring rats. Type of assay: in vivo, rat. The method, then: In Vivo Effects on Alcohol Intake in Rats. In our initial behavioral studies in an animal model, effects of compound (S)-15 (Scheme 1, YL-1-127) on alcohol self-administration in alcohol preferring rats (P rats) were assessed. Three doses of (S)-15 were tested: 0.33, 1 and 3 mg/kg (s.c.).
General Procedures for Effect on Alcohol Intake in Rats. Adult male rats obtained from a colony of selectively-bred alcohol preferring rats (P rats) maintained at Indiana University School of Medicine. Rats were housed in cages that were fitted with two 100 mL Richter tubes for the recording of water and alcohol intake. Animals were kept under a constant room temperature of 22±1° C. and 12:12 light-dark cycle (7:00 a.m.-7:00 p.m. dark). Animals were fed 5001 Rodent Chow (Lab Diet, Brentwood, Mo., USA). All procedures were approved by the IACUC at Duke University Medical Center.
After a week of handling and habituation, rats were given free access to water in a graduated Richter tube for 1 day. Next, they were given free access only to a solution of 10% (v/v) alcohol for 3 consecutive days. Thereafter, rats were given free access to water and a solution of alcohol throughout the study. Water and alcohol intake were indexed by graduated Richter drinking tubes.
An acute study was conducted to determine a dose-response for compound (S)-15 (YL-1-127). After the establishment of a stable baseline for alcohol and water intake rats were injected subcutaneously with 0.33, 1 and 3 mg/kg of YL-1-127 or the same volume of the vehicle ([…]). Alcohol and water intake were measured at, 2, 4, 6 and 24 hr after the drug administration. The preference for alcohol solution, [(alcohol volume)/(alcohol+water volume)×100], was calculated for the same time points as alcohol and water intake. All animals (n=18) received all treatments following a crossover design with random assignment. The interval between injections was at least 3 days.
Solution of 10% (v/v) alcohol was prepared twice weekly from a solution of […] mixed with tap water. Solutions of YL-1-127 was prepared weekly in 100 mM HCl solution and isotonic saline and was injected subcutaneously in a volume of 1 mL/kg.
The data were assessed by the analysis of variance with a between subjects factor of strain and a repeated measures factor of YL-1-127 dose. Significance was determined at p

The target in a further assay is α3β4 nAChR (Rattus norvegicus (Rat), UniProt P04757+P12392). The assay can be described thus: [3H]-epibatidine competition binding, α3β4. To be noted: Table 1; mean of 3 to 5 measurements. The method, then:
(§1) In Vitro Binding Affinities for nAChR Subtypes. […] To determine selectivities of these compounds in binding assays among the three predominant nAChR subtypes, α3β4, α4β2 and α7, the ratios of Ki values (α3β4/α4β2 and α7/α4β2) were determined.
(§2) Cell Lines and Cell Culture. The cell lines expressing defined rat nAChR subtypes were established previously by stably transfecting HEK 293 cells with rat nAChR subunit genes. The cell line expressing human α4β2 nAChRs, YXα4β2H1, was established recently. These cell lines were maintained in minimum essential medium (MEM) supplemented with 10% fetal bovine serum, 100 units/mL penicillin G, […] and selective antibiotics at 37° C. with 5% CO2 in a humidified incubator. Fetal bovine serum was provided by Gemini Bio-Products (Woodland, Calif.). Tissue culture medium and antibiotics were obtained from Invitrogen Corporation (Carlsbad, Calif.), unless otherwise stated.
(§3) Briefly, cultured cells at >80% confluence were removed from their flasks (80 cm^2) with a disposable cell scraper and placed in 10 mL of 50 mM Tris.HCl buffer (pH 7.4, 4° C.). The cell suspension was centrifuged at 10,000×g for 5 min and the pellet was collected. The cell pellet was then homogenized in 10 mL buffer with a polytron homogenizer and centrifuged at 36,000 g for 10 min at 4° C. The membrane pellet was resuspended in fresh buffer, and aliquots of the membrane preparation were used for binding assays. […] Bound and free ligands were separated by vacuum filtration through Whatman GF/C filters treated with 0.5% polyethylenimine. The filter-retained radioactivity was measured by liquid scintillation counting. Specific binding was defined as the difference between total binding and nonspecific binding. Data from competition binding assays were analyzed using Prism 5 (GraphPad Software, San Diego, Calif.).
(§4) Pharmacological Properties. We measured the in vitro binding affinities of the ligands for defined receptor subtypes (α2β2, α2β4, α3β2, α3β4, α4β2, α4β4, α6β2, α6β4, and α7) expressed in stably transfected cell lines. […] Rat forebrain homogenates were included to allow comparison between the heterologous and native α4β2 and α7 nAChRs. See Table 1 for binding affinity values (Ki) of the ligands at the three major nAChR subtypes (α3β4. α4β2 and α7).

A further assay addresses α4β2 nAChR (Rattus norvegicus (Rat), UniProt P09483+P12390). Description: biochemical. The class given is binding. The method, then: as §1, §2, §3, §4
Another assay concerns the target α7 nAChR (Rattus norvegicus (Rat), UniProt Q05941). Type of assay: binding. The settings on record: Table 1; mean of 3 to 5 measurements. The method, then:
as §1, §2, §3, §4

Chain of α4β2 nAChR (P09483 31-630 limits assumed): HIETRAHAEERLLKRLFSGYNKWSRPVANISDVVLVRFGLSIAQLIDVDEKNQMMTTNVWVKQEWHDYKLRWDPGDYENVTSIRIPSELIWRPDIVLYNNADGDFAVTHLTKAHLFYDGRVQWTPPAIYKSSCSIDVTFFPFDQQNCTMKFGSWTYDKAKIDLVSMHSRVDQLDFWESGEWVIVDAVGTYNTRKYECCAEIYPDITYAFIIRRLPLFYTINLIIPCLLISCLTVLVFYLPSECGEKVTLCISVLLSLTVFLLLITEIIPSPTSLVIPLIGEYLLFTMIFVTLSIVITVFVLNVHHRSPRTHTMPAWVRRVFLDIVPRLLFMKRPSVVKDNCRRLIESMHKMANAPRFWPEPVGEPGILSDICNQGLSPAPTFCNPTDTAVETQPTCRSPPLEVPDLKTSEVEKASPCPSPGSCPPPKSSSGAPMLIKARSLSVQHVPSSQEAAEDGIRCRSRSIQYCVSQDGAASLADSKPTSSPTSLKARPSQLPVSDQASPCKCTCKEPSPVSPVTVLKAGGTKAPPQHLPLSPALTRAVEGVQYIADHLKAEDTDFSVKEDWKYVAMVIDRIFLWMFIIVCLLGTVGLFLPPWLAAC
Chain of α4β2 nAChR (P12390 25-500 limits assumed): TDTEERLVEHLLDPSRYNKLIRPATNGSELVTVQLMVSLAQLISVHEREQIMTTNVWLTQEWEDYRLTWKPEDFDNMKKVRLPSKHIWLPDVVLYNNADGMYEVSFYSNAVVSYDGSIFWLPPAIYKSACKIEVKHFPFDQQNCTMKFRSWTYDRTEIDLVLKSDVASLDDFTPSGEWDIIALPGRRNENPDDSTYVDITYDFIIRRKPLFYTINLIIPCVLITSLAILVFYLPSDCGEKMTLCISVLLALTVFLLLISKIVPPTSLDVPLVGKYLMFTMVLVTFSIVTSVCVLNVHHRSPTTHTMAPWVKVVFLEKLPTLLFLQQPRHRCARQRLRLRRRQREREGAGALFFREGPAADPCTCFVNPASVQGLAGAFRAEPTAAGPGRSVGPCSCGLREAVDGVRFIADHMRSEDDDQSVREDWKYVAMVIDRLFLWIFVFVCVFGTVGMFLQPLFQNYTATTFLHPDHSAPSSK
Chain of α7 nAChR (Q05941 23-502 limits assumed): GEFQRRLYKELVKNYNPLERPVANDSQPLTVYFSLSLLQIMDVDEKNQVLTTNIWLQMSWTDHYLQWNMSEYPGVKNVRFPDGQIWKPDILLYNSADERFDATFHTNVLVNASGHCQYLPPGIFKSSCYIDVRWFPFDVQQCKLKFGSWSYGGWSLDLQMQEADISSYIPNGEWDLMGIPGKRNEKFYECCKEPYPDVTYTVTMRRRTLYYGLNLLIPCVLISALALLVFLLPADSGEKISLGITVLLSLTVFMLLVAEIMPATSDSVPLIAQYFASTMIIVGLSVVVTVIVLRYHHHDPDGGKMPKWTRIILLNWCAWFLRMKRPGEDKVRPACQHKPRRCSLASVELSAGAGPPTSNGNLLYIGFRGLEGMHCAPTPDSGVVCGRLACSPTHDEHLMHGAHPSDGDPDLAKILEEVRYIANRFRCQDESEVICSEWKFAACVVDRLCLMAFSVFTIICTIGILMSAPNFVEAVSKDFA
Chain of α3β4 nAChR (P04757 26-499): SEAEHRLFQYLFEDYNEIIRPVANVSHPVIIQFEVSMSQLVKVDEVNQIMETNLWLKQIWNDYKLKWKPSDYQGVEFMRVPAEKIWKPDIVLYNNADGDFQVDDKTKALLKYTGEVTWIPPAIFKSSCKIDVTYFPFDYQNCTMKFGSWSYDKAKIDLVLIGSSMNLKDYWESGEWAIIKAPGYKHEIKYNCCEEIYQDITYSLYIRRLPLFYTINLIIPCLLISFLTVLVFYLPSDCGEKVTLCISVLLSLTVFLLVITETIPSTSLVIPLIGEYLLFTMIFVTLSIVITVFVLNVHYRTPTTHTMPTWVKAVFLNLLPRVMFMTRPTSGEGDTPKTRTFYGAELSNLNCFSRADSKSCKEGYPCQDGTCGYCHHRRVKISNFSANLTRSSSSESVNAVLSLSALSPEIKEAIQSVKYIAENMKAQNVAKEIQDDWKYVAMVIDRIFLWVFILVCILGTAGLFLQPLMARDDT
Chain of α3β4 nAChR (P12392 21-495): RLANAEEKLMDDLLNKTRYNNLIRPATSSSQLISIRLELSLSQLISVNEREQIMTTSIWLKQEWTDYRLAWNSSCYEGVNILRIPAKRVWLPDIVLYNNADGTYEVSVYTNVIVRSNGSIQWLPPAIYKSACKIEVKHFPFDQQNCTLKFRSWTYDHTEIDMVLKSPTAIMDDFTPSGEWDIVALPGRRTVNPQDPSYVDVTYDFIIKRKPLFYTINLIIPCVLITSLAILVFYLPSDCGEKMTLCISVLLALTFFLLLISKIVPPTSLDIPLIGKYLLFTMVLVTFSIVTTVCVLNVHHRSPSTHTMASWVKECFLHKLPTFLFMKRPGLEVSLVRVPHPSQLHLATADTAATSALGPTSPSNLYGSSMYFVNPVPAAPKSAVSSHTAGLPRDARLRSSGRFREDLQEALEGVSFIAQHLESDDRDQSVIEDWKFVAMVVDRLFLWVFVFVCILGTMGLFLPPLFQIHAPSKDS

In general, Ki refers to a measure of affinity in units of concentration, obtained from inhibition or displacement. Turning to `CCCCC#Cc1cnc(C)c(OC[C@@H]2CCN2)c1` [(S)-15, (S)-3-(azetidin-2-ylmethoxy)-5-(hex-1-ynyl)-2-methylpyridine], the alcohol intake result is reported as “reduced alcohol intake significantly” in assay [1] (1 mg/kg s.c., 24 h, p<0.05); “significant effects” in assay [1] (3 mg/kg s.c., 6 h, p<0.05); “significant effects” in assay [1] (3 mg/kg s.c., 24 h, p<0.0005); “significantly reduced alcohol intake in a dose dependent manner” in assay [1] (0.33, 1 and 3 mg/kg s.c., compared with control vehicle). Moreover, the Ki on α3β4 nAChR was found to be 230 µM; at α4β2 nAChR (Table 3 (Example 4), read-out: Ki α4β2), 0.012 µM; on α7 nAChR, 93 µM. Besides, the “Ki Ratio α3β4/α4β2” value at α4β2 nAChR (selectivity for α4β2 over α3β4) is recorded as 19,000. The “Ki Ratio α7/α4β2” value on α4β2 nAChR (selectivity for α4β2 over α7) is recorded as 7,800.
